Data on one compound can be found in patent publication US20250090475A1, “DRUG-LOADED AMINO ACID BASED POLY (ESTERUREA)FILMS FOR CONTROLLED LOCAL RELEASE OF NON-OPIOID ANALGESIC COMPOUNDS” (MERK SHARP & DOHME CORP., priority 2020, published 2025).

A short description of series [1]: In vitro etoricoxib release from PEU films, USP Apparatus 7, PBS. Particulars: about 6 mg in USP 7, PBS, n=3. The format is physicochemical.
Series [2] is described as follows: Etoricoxib solubility in the release media. The format is physicochemical. Particulars: used in Higuchi equation. The procedure:
D=(slope/A)^2/2CCs • Where the slope is the amount of drug released at time t divided by the square root of time, A is the area of the film, C is the initial drug concentration (or the drug-load in the polymer), CS is the drug solubility in the media (0.5 mg/mL) and D is the diffusivity constant. This constant not only indicates the mobility of the drug from the film into the media, but also can be used to calculate for the time of total release using the maximum amount of drug within the film (Table 11).

For series [3] the following is noted: 90 mg etoricoxib dosed patients in comparison to diclofenac at 150 mg; oral; cited from earlier work.

For the compound `Cc1ccc(-c2ncc(Cl)cc2-c2ccc(S(C)(=O)=O)cc2)cn1` [etoricoxib], the “time at which free drug release reached a plateau” value in series [1] is approximately 1 days. The “drug solubility in the media (CS)” value in series [2] turned out to be 500 µg/mL. Further, in series [3], the gastrointestinal events result is on record as “decrease in gastrointestinal events”; the “risk of edema and hypertension” value was “dose-dependent increased risk”.
